According to patent US8044080B2, “Isoxazoline derivative and novel process for its preparation” (LG Life Sciences Ltd., priority 2005, dated 2011):

Tests used:
[1] = tested on: LPS-Induced Acute Hepatitis in Mice; experiment: Treatment effect on LPS-induced acute hepatitis in mice (blood plasma ALT activity); format: in vivo, Male Balb/c mice; details: Mus musculus, LPS/D-Gln model, plasma ALT 8 hours after drug injection
[2] = tested on: Fas Antibody-Induced Acute Hepatitis in Mice; experiment: Treatment effect on Fas antibody-induced acute hepatitis in mice (blood plasma ALT activity); format: in vivo, Male Balb/c mice; details: Mus musculus, Fas antibody model, plasma ALT 8 hours after drug injection
[3] = Stability test of amorphous and crystalline form under severe condition (60° C.); format: physicochemical; details: after 28 days
Text: Therefore, it should be understood that the crystalline form has better stability than the amorphous form enough to be used for the composition of inhibitor or therapeutic agent.

amount destroyed in stability test [3] [%] | quantitative amount in stability test [3] | Structure (SMILES) | ED50 ([1]; intravenous administration) [mg/kg] | ED50 ([1]; oral administration) [mg/kg] | ED50 ([2]; intravenous administration) [mg/kg] | ED50 ([2]; oral administration) [mg/kg]
– | – | CC(C)[C@@]1(C(=O)N[C@H]2CC(=O)O[C@]2(O)CF)CC(c2nccc3ccccc23)=NO1 [compound of formula (1), (4S,5S)-5-fluoromethyl-5-hydroxy-4-({[(5R)-5-isopropyl-3-(1-isoquinolinyl)-4,5-dihydro-5-isoxazolyl]carbonyl}amino)-2-dihydrofuranone] | 0.015 | 0.02 | 0.003 | 0.018
50 | not decreased at all | CC(C)[C@@]1(C(=O)N[C@H]2CC(=O)O[C@]2(O)CF)CC(c2nccc3ccccc23)=NO1 [(4S,5S)-5-fluoromethyl-5-hydroxy-4-({[(5R)-5-isopropyl-3-(1-isoquinolinyl)-4,5-dihydro-5-isoxazolyl]carbonyl}amino)-2-dihydrofuranone] | – | – | – | –
